Results taken from patent USRE50083E1, “URAT1 inhibitor and use thereof” (Jiangsu Atom Bioscience and Pharmaceutical Co., Ltd., priority 2016, dated 2024).
Like-named read-outs stand apart in the source and are kept apart here.

Target: T1, hURAT1 (Homo sapiens, UniProt Q96S37)
T1 sequence (Q96S37 1-553): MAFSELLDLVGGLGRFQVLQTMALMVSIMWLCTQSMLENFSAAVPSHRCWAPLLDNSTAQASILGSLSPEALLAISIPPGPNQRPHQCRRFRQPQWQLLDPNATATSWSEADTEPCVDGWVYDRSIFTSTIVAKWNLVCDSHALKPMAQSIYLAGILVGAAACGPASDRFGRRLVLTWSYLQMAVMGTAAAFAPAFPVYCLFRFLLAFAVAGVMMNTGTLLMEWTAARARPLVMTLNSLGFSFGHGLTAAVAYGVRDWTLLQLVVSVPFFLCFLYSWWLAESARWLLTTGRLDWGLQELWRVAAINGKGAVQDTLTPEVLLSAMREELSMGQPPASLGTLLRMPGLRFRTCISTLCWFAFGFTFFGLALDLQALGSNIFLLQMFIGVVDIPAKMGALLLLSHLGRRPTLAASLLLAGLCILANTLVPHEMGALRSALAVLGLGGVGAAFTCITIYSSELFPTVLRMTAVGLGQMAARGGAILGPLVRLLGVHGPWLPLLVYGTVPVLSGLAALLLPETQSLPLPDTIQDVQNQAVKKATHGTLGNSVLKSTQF
Assay: Inhibition assay of uric acid transport in HEK293-hURAT1 transfection cell line (14C-uric acid uptake)
Format: cell-based
Conditions: for inhibition at 0.5 µM: read-out: Inhibitory rates of uric acid transport, ±SD (%); for inhibitory effect on uric acid transport (in words): 500 nM, in comparison with the control drug benzbromarone
Experimental: 1. Construction of a HEK293 Cell Line with High Expression of hURAT1:
The plasmid pCMV6-hURAT1 was transfected into HEK293 cells, and then the stable strain was obtained by the G418 (final concentration of 500 μg/mL) resistance screening, which is the high expression of hURAT1 transporter membrane protein. […] The HEK293 cells are the human embryonic kidney cells with high transfection efficiency, and are a very commonly used engineering cell line for expressing exogenous genes.
2. To a coated 24-well plate was added 200 μl of 0.1 mg/mL poly-lysine per well and the plate was left overnight. Poly-lysine was removed from wells. The wells were cleaned thoroughly with sterile water and dried for use.
3. To the above coated 24-well plate was added HEK293-hURAT1 stable cells (2×10^5 cells per well). The cells were cultured at 37° C. under 5% CO2 for 3 days.
4. […] The solution was fully mixed to give HBSS (pH value: 7.4). The buffer was stored at −20° C.
5. The HBSS buffer was warmed to 37° C. in a water bath. Taken out the 24-well plate with HEK293-hURAT1 stable cells, removed the culture medium and washed cells with HBSS, then added 160 μL of HBSS and 20 μL test compound per well. The final concentration of tested compound per well is 500 nM. The blank control well contains only 180 μL of HBSS without tested compound. The plate was placed at room temperature for 10 min.
6. To each well was added 20 μL of 50 μM ^14C-Uric acid. The 24-well plate was placed at room temperature for 20 min.
7. The solution in each well was removed and the cells were washed with the pre-cooled HBSS buffer. To each well was added 0.2 M NaOH to dissolve the cells. The solution containing cell fragments was collected and the right amount of scintillation liquid was added.
8. The formula for calculating the inhibitory rate of uric acid transport for compounds was shown as below (Table 1), the CPM value of the tested compounds was represented by CPM(tested compound) and the CPM value of the blank control was represented by CPM(blank control).

[1] = 500 nM compound concentration, HEK293-hURAT1 transfection cell line, 14C-uric acid, mean of three tests ± SD
[2] = HEK293-hURAT1 transfection cell line

SMILES | inhibition at 0.5 µM [1] [%] | inhibitory effect on uric acid transport (in words) [2] | inhibition at 0.5 µM [%]
CCc1oc2ccccc2c1C(=O)c1cc(Br)c(O)c(Br)c1 [Benzbromarone, (3,5-dibromo-4-hydroxy-'phenyl)(2-ethylbenzofuran-3-yl)-methanone, reference compound] | – | – | 54.8 ± 5.12
CCc1nc2ccccn2c1C(O)c1cc(Br)c(O)c(C#N)c1 (stereo not shown) [Compound 20, 3-bromo-5-[(2-ethylimidazo[1,2-a]pyridine-3-yl)-hydroxymethyl]-2-hydroxybenzonitrile] | 62.1 ± 1.26 | very good inhibitory effects | –
CCc1nc2sccn2c1C(O)c1cc(Br)c(O)c(Br)c1 (stereo not shown) [Compound 22, 2,6-dibromo-4-[(6-ethylimidazo[2,1-b]thiazole-5-yl)-hydroxymethyl]phenol] | 48.2 ± 3.86 | – | –
CCc1nc2ccccn2c1C(O)c1ccc(O)c(C#N)c1 (stereo not shown) [Compound 21, 5-[(2-ethylimidazo[1,2-a]pyridine-3-yl)hydroxymethyl]-2-hydroxybenzonitrile] | 33 ± 7.33 | – | –
CCc1nc2sccn2c1C(=O)c1cc(Br)c(O)c(Br)c1 [Compound 8, (3,5-dibromo-4-hydroxyphenyl)(6-ethylimidazo[2,1-b]-thiazole-5-yl)methanone] | 55.2 ± 3.94 | very good inhibitory effects | –
CCc1nc2cnccn2c1C(O)c1cc(Br)c(O)c(Br)c1 (stereo not shown) [Compound 23, 2,6-dibromo-4-[(2-ethylimidazo[1,2-a]pyrazine-3-yl)-hydroxymethyl]phenol] | 50.2 ± 1.02 | very good inhibitory effects | –
CCc1nc2ncccn2c1C(=O)c1cc(Br)c(O)c(Br)c1 [Compound 4, (3,5-dibromo-4-hydroxyphenyl)(2-ethylimidazo[1,2-a]-pyrimidine-3-yl)methanone] | 50 ± 5.38 | – | –
CCc1oc2ccccc2c1C(O)c1cc(Br)c(O)c(Br)c1 (stereo not shown) [Compound 42, 2,6-dibromo-4-[(2-ethylbenzofuran-3-yl)-hydroxymethyl]phenol] | – | – | 37.4 ± 2.36
CCc1nc2cnccn2c1C(=O)c1cc(Br)c(O)c(Br)c1 [Compound 12, (3,5-dibromo-4-hydroxyphenyl)(2-ethylimidazo[1,2-a]-pyrazine-3-yl)methanone] | 51.31 ± 0.16 | very good inhibitory effects | –

Now from value to compound, other results behind:

inhibition at 0.5 µM [1] [%] | inhibitory effect on uric acid transport (in words) [2] | SMILES | inhibition at 0.5 µM [%]
37.4 ± 5.52 | – | CCc1nc2cc(C(F)(F)F)ccn2c1C(O)c1cc(Br)c(O)c(Br)c1 (stereo not shown) [Compound 41, 2,6-dibromo-4-{[2-ethyl-7-(trifluoromethyl)-imidazo[1,2-a]pyridine-3-yl]hydroxymethyl}phenol] | –
31.91 ± 0.23 | – | CCc1nc2scnn2c1C(=O)c1cc(Br)c(O)c(Br)c1 [Compound 49, (3,5-dibromo-4-hydroxyphenyl)(6-ethylimidazo-[2,1-b][1,3,4]thiadiazole-5-yl)methanone] | –
51.7 ± 2.43 | very good inhibitory effects | CCc1nc2ccc(Br)cn2c1C(O)c1cc(Br)c(O)c(Br)c1 (stereo not shown) [Compound 40, 2,6-dibromo-4-[(6-bromo-2-ethylimidazo[1,2-a]-pyridine-3-yl)hydroxymethyl]phenol] | –
39.9 ± 5.34 | – | CCc1nc2cc(OC)ccn2c1C(O)c1cc(Br)c(O)c(Br)c1 (stereo not shown) [Compound 64, 2,6-dibromo-4-{(2-ethyl-7-methoxyimidazo[1,2-a]-pyridine-3-yl)hydroxymethyl}phenol] | –
42.9 ± 3.44 | – | CCc1nc2ccccn2c1C(O)c1cc(C)c(O)c(Br)c1 (stereo not shown) [Compound 54, 2-bromo-4-(2-ethylimidazo[1,2-a]pyridine-3-yl)-hydroxymethyl-6-methylphenol] | –
41.2 ± 1.92 | – | CCc1nc2ccc(F)cn2c1C(O)c1cc(F)c(O)c(Br)c1 (stereo not shown) [Compound 28, 2-bromo-4-[(2-ethyl-6-fluoroimidazo[1,2-a]pyridine-3-yl)hydroxymethyl]-6-fluorophenol] | –
48.7 ± 5.61 | – | CCc1oc2ccccc2c1C(OC)c1cc(Br)c(O)c(Br)c1 (stereo not shown) [Compound 58, 2,6-dibromo-4-[(2-ethylbenzofuran-3-yl)(methoxy)-methyl]phenol] | –
36.3 ± 1.79 | – | CCc1nn2ccccc2c1C(O)c1cc(Br)c(O)c(Br)c1 (stereo not shown) [Compound 35, 2,6-dibromo-4-[(2-ethylpyrazolo[1,5-a]pyridine-3-yl)-hydroxymethyl]phenol] | –
